Legend:
Format in all cases: cell-based, human
[1] = Neutral red uptake viability assay, SW620Mito; details: human, SW620Mito cells (mitoxantrone-resistant), 72 h, n = 3, read-out: Cytotoxic activity IC50 (95% CI)
[2] = Neutral red uptake viability assay, SW620D; details: human, SW620D cells (doxorubicin-resistant), 72 h, n = 3, read-out: Cytotoxic activity IC50 (95% CI)
[3] = Neutral red uptake viability assay, SW620C; details: human, SW620C cells (cisplatin-resistant); SW620C, 72 h, n = 3; read-out: Cytotoxic activity IC50 (95% CI)
Method: The normal lung fibroblast MRC-5 and colorectal adenocarcinoma SW620 cell lines used in this experiment were purchased from American Type Culture Collection (USA) via LGC […]
described previously.10, 11 All cells were cultured under standard conditions (37°C, 5% CO2, 100% humidity) in high-glucose DMEM supplemented with GlutaMaxTM, HEPES (ThermoFisher Scientific, USA), and 10% fetal bovine serum (EURx, Poland). Cells were routinely tested for potential Mycoplasma contamination using the MycoProbe Mycoplasma Detection kit (R&D System, USA).
In total, 104 cells in 100 µL of complete medium were plated per well of a 96-well plate and left overnight to allow cells to adhere to the surface. Then, the cells were exposed to a desired concentration of tested compound(s). Stock solutions were prepared in DMSO and used immediately. The final DMSO concentration was constant and nontoxic (0.1% v/v). After 70-h incubation, neutral red was added to the final concentration of 1 mM. After another 2 h, the medium was aspirated, and cells were washed twice with PBS. Dye was released using 100 µL of a solubilizer (1% acetic acid in 50% ethanol) on an orbital shaker (10 min). Absorbance was read at 540 nm using EnVision Multilabel Plate Reader (Perkin Elmer, USA). Results were expressed as % of control. The IC50 parameters were calculated using GraphPad Prism version 10 (GraphPad Software, Boston, Massachusetts USA). […]
IC₅₀ values were determined in […]
All experiments were performed in triplicate (n = 3).

[4] = Neutral red uptake viability assay, SW620V; details: human, SW620V cells (vincristine-resistant), 72 h, n = 3, read-out: Cytotoxic activity IC50 (95% CI)

Measured: IC50 at 72 h

O=C1N/C(=C/c2ccccc2)C(=O)N2CCC[C@@H]12 [(S,E)-4e]
> 100 µM: all assays above

O=C1N/C(=C\c2ccccc2)C(=O)N2CCC[C@@H]12 [(S,Z)-4e]
> 100 µM: all assays above

From publication PMC12257394, “Design, Synthesis, and Biological Evaluation of Ferrocenyl–Cyclo-(Gly‑L‑Pro) Hybrids Sensitizing Multidrug-Resistant Cancer Cells to Anticancer Agents” (ACS Medicinal Chemistry Letters, 2025)
